Results taken from patent US10766855B2, “Hydroxamate triterpenoid derivatives” (VIVACELL BIOTECHNOLOGY ESPANA S.L., priority 2016, dated 2020).

Columns and labels:
HIF-1α = HIF-1α transactivation assay in NIH-3T3-EPO-Luc fibroblast cells; format: cell-based; details: for Efficacy HIF-1α (IRA coefficient) / EC50: 6 h stimulation; for Efficacy HIF-1α (IRA coefficient): relative to 150 μM DFX; for EC50: Fibroblast, read-out: Potency EC50 HIF-1α
Experimental: To investigate the biological activities of the different compounds, HIF-1α transactivation assays were performed either in NIH-3T3-EPO-Luc cells (Table II) or in HaCaT-EPO-luc cells (FIG. 2). The NIH3T3-EPO-luc and HaCaT-EPO-luc cells have been stably transfected with the plasmid Epo-Luc plasmid. The EPO-Hypoxia Response Element (HRE)-luciferase reporter plasmid contains three copies of the HRE consensus sequence from the promoter of the erythropoietin gene fused to the luciferase gene. NIH3T3-EPO-luc cells were maintained at 37° C. in a humidified atmosphere containing 5% CO2 in DMEM supplemented with 10% fetal calf serum (FBS), and 1% (v/v) penicillin/streptomycin. DFX was purchased from Sigma-Aldrich (USA). Cells (1×10^4/well in 96 well plates) were seeded the day before the assay. […] After six hours of stimulation the cells were lysed in 25 mM Tris-phosphate pH 7.8, 8 mM MgCl2, 1 mM DTT, 1% Triton X-100, and 7% glycerol during 15 min at RT in a horizontal shaker. Luciferase activity is measured using a microplate luminometer (Berthold) following the instructions of the luciferase assay kit (Promega, Madison, Wis., USA).

NF-κB = NF-κB inhibition in NIH-3T3-KBF-Luc cells stimulated with TNFα; format: cell-based; details: TNFα 30 ng/ml, 6 h
Experimental: To further study the target selectivity of the compounds described in the present invention the effect of the natural triterpenoids (OA; BA, UA, and MA), compounds II to XV of Formula (I) disclosed in present invention, and of comparative compound CDDO-Me on NF-κB inhibition, STAT-3 inhibition, Nrf2 activation and TGR5 activation was analyzed. For this study cell lines NIH-3T3-KBF-Luc, HeLa-STAT3-Luc, HaCaT-ARE-Luc and CHO-TGR5-CRE-luc were used respectively. The NIH3T3-KBF-Luc cell line stably transfected with the plasmid KBF-Luc plasmid, which contains three copies of NF-κB binding site (from major histocompatibility complex promoter), fused to a minimal simian virus 40 promoter driving the luciferase gene. Cells (1×10^4/well) were seeded in 96-well plates, treated with increasing concentrations of the compounds II to XV for 15 min and then stimulated with 30 ng/ml TNFα. After 6 h the luciferase activity in the cell lysates was measured as indicated above.

STAT3 = STAT3 inhibition in HeLa-STAT3-Luc cells stimulated with IFN-γ; format: cell-based; details: IFN-γ 25 IU/ml, 6 h
Experimental: (§1) The HeLa-STAT3-luc cells stably transfected with the plasmid 4×M67 pTATA TK-Luc. Cells (20×10^3 cells/ml) were seeded in 96-well plates, treated with increasing concentrations of the compounds II to XIV, and of comparative compound CDDO-Me, for 15 min and then stimulated with IFN-γ 25 IU/ml. After 6 h the luciferase activity in the cell lysates was measured as indicated above. […] The HaCaT-ARE-Luc cell line contains the Nqo1 Antioxidant Response Element (ARE)-Luc reporter plasmid. ARE is activated by all members of the CNC family of factors (Nrf1, Nrf2, Nrf3 and p45 NF-E2). The cells were cultivated in 96-well plates at the concentration of 25×10^3 cells/well in a CO2 incubator at 37° C. For induction of Nrf2 activation the cells were treated with increasing concentrations of the compounds II to XV, and of comparative compound CDDO-Me, for 6 h. As a positive control the cells were treated with 0.02 mM of the antioxidant Tert-butyl-hydroquinone (TBHQ). Luciferase activity in the cell lysates was measured as indicated above and the EC50 calculated (Table III). The CHO-TGR5-CRE-Luc cells stably transfected with the pTGR5 and CRE-Luc. The CRE-responsive luciferase construct encodes the firefly luciferase reporter gene under the control of a minimal (m)CMV promoter and tandem repeats of the CRE transcriptional response element (TRE) and is useful to monitor cAMP signaling pathways activated by TGR5 agonists. Cells (1×10^4/well) were seeded in 96-well plates, treated with increasing concentrations of the compounds II to XV and CDDO-Me, for 6 h. As a positive control the cells were treated with 10 μM of LCA (lithocholic acid). Luciferase activity in the cell lysates was measured as indicated above and the EC50 calculated (Table III).

Nrf2 [1] = assay: Nrf2 activation/inhibition in HaCaT-ARE-Luc cells; format: cell-based; details: 6 h
Experimental: as §1

TGR5 = TGR5 activation in CHO-TGR5-CRE-Luc cells; format: cell-based; details: 6 h
Experimental: The CHO-TGR5-CRE-Luc cells stably transfected with the pTGR5 and CRE-Luc. […] As a positive control the cells were treated with 10 μM of LCA (lithocholic acid). Luciferase activity in the cell lysates was measured as indicated above and the EC50 calculated (Table III).

Nrf2 [2] = assay: Nrf2 activation/inhibition in HaCaT-ARE-Luc cells; format: cell-based
[3] = system: STHdhQ7/Q7 and STHdhQ111/Q111 striatal cells; assay: 3-NP-induced cytotoxicity in striatal Q7 and Q111 cells (YOYO-1); format: cell-based, mouse; details: 6 h pre-treatment, 3-NP 10 mM 24 h; compound VII increasing concentrations, DFX 50 μM
Experimental: FIG. 8. Compound VII abrogates 3-NP toxicity in Q7 and […] striatal cells. Q7 and Q111 Striatal cells were pretreated with increasing concentrations of compound VII for 6 h and then exposed to 3-NP (10 mM) for an additional 24 h, after which YOYO-1 staining was used to investigate cell death. Cell death was determined using the IncuCyte HD software and the treatment with 3-NP alone in Q111 cells was considered as 100% of cell death.
To investigate whether HIF activation in striatal Q7 and Q111 cells is sufficient to protect striatal neurons (provide neuroprotection), the effect of compound VII on 3-NP induced death was examined. […]
STHdh^Q7/Q7 and STHdh^Q111/Q111 cells (10^4 cells/well in 96-well plates) were incubated with YOYO-1 (Life Technologies) and then treated with 3-NP (10 mM) and or DFX (50 μM) as a positive control for PHDs inhibition. […] The uptake of YOYO-1 by damaged cells correlates with the increase in YOYO-1 fluorescence. Treated cells are placed in an Incucyte FLR imaging system, and the YOYO-1 fluorescence is measured after 24 h of 3-NP treatment. Following the incubation period object counting analysis was performed using the Incucyte FLR software to calculate the total number of YOYO-1 fluorescence positive cells and total DNA containing objects (end point). […]

SMILES	Efficacy HIF-1α (IRA coefficient) (HIF-1α)	EC50 (HIF-1α) [µM]	IC50 (NF-κB) [µM]	IC50 (STAT3) [µM]	EC50 (Nrf2 [1]) [µM]	EC50 (TGR5) [µM]	IC50 (Nrf2 [2]) [µM]	neuroprotection to 3-NP-induced cytotoxicity (cell death) [3]	activation of the EPO promoter as a surrogate marker of HIF-1α pathway activation (in words) (HIF-1α)
CC1(C)CC[C@]2(C(=O)NO)CC[C@]3(C)C(=CC[C@@H]4[C@@]5(C)C[C@@H](O)[C@H](O)C(C)(C)[C@@H]5CC[C@]43C)[C@@H]2C1 [Compound XIV, (2α,3β) 2,3-Dihydroxy-N-hydroxy-olean-12-en-28-amide]	0.10	7.1	> 50	> 50	> 50	> 50	> 50		
CC1(C)CC[C@]2(C(=O)NO)CC[C@]3(C)C(=CC[C@@H]4[C@@]5(C)C=C(O)C(=O)C(C)(C)[C@@H]5CC[C@]43C)[C@@H]2C1 [Compound XV, 2-Hydroxy-3-oxo-oleana-1,12-dien-N-hydroxy-28-amide]	0.06	11.2	> 50	> 50	> 50	> 50	> 50		
CC(=O)N(O)CCCCCNC(=O)CCC(=O)N(O)CCCCCNC(=O)CCC(=O)N(O)CCCCCN [DFX, desferrioxamine, reference compound]								also protected the cells from the cytotoxic activity of 3-NP	
CC1(C)CC[C@]2(C(=O)O)CC[C@]3(C)C(=CC[C@@H]4[C@@]5(C)C[C@@H](O)[C@H](O)C(C)(C)[C@@H]5CC[C@]43C)[C@@H]2C1 [Maslinic acid, reference compound]		> 50	> 50	> 50	> 50	10.2	> 50		None of the natural triterpenoids
CC1(C)CC[C@]2(C(=O)O)CC[C@]3(C)C(=CC[C@@H]4[C@@]5(C)CC[C@H](O)C(C)(C)[C@@H]5CC[C@]43C)[C@@H]2C1 [Oleanolic acid, reference compound]		> 50	> 50	> 50	> 50	[…]	> 50		None of the natural triterpenoids
